According to patent publication US20130123287A1, “CONTROL AGENT FOR SOFT ROT AND CONTROL METHOD FOR THE SAME” (ISHIHARA SANGYO KAISHA, LTD., priority 2010, published 2013):

Tests used:
[1] = test system: soft rot of Chinese cabbage; experiment: Test for controlling soft rot of Chinese cabbage, Example 3 / Comparative Example 3 (field, cultivar Muso); format: in vivo; settings: 500 g ai/10 a, 150 L/10 a sprayed onto planting holes before planting, 51 days after start
Text: (§1) Frequency of the disease=[sigma(number of plants with the onset of the disease at each severity level*index of the onset of the disease)/(plants examined*4)]*100
(§2) Disease control value=[1-(frequency of the disease in the treated lot/frequency of the disease in the non-treated lot)]*100
(§3) • 0: No onset • 1: Onset in some of outer leaves (shippable) • 2: Onset in outer leaves and some of head leaves (by removing damaged parts, the resulting cabbage can be shipped as small cabbage but is ranked as grade B). • 3: Most of head leaves are inflicted with the onset of the disease or with severer damages (not shippable) • 4: Whole cabbage plant is inflicted with the onset of the disease and is dead.
442 g/l kresoxim-methyl (STROBY FLOWABLE [trade name], manufactured by BASF) was adjusted to 500 g ai/10a (0.5 g/m^2, 1131 ml Product/10a) as the amount of the active ingredient and to 150 L/10a as the volume of diluent water. […]
51 days after the start of the tests, all the plants in each lot were examined about the severity level of the disease to assess the frequency of the disease and the disease control value. The frequency of the disease and the disease control value were determined in the same manner as described above. Because soft rot is a disease with damages hardly controlled, herein, even a chemical at the level C determined by the tests of the effects can practically be used.

[2] = test system: soft rot of Chinese cabbage; experiment: Test for controlling soft rot of Chinese cabbage, Example 4 / Comparative Example 4 (field, cultivar Ouraku 60); format: in vivo; settings: 500 g ai/10 a, 150 L/10 a sprayed onto planting holes before planting, 49 days after start
Text: as §1, §2, §3
442 g/lkresoxim-methyl (STROBY FLOWABLE [trade name], manufactured by BASF) was adjusted to 500 g ai/10a (0.5 g/m^2, 1131 ml Product/10a) as the amount of the active ingredient and to 150 L/10a as the volume of diluent water.
70% w/w thiophanate methyl (Topsin M WF [trade name], manufactured by Nippon Soda Co., Ltd.) was adjusted to 1000 g ai/10a (1 g/m^2, 1429 g Product/10a) as the amount of the active ingredient and to 150 L/10a as the volume of diluent water.
50% w/w boscalid (Cantus DF [trade name], manufactured by BASF) was adjusted to 500 g ai/10a (0.5 g/m^2; 1000 g Product/10a) as the amount of the active ingredient and to 150 L/10a as the volume of diluent water.
50% w/w procymidone (Sumilex WP [trade name], manufactured by Sumitomo Chemical Agro) was adjusted to 500 g ai/10a (0.5 g/m^2, 1000 g Product/10a) as the amount of the active ingredient and to 150 L/10a as the volume of diluent water.
400 g/l iprodione (Rovral 500 Aqua [trade name], manufactured by Bayer Crop Science Co., Ltd.) was adjusted to 500 g ai/10a (0.5 g/m^2, […] Product/10a) as the amount of the active ingredient and to 150 L/10a as the volume of diluent water.
200 g/l fludioxonil (Seibia FLOWABLE [trade name], manufactured by Syngenta Japan K.K.) was adjusted to 500 g ai/10a (0.5 g/m^2, 2500 ml Product/10a) as the amount of the active ingredient and to 150 L/10a as the volume of diluent water.
400 g/l mepanipyrim (Flupika PLOWABLE [trade name], manufactured by Nippon Soda Co., Ltd.) was adjusted to 500 g ai/10a (0.5 g/m^2, 1250 ml Product/10a) as the amount of the active ingredient and to 150 L/10a as the volume of diluent water.
After spreading an agricultural mulch-sheet and opening planting holes (diameter of about 5 cm) for permanent planting through the mulch-sheet, the spray solutions prepared as described above were sprayed onto the planting holes such that the amount of treated active ingredient of each spray solution was 0.5 g/m^2 (150 L per 10a), followed by air-drying; subsequently, seedlings of Chinese cabbage (cultivar: Ouraku 60) grown for 4 weeks in cell mold trays (128 holes/nursery box) were planted such that 30 seedlings were planted in each test lot having an area of 2.5 m^2 with two replications.
Preparation was performed by diluting a chemical solution (Agrimycin WP100 [trade name] manufactured by Pfizer) containing oxytetracycline at 1.5% and streptomycin sulfate salt at 18.8% with water to 1/1500.
In a field spread with the agricultural mulch-sheet, Chinese cabbage seedlings (cultivar: Ouraku 60) grown by the same method as in Example 4 were planted by the same method as in Example 4, for spraying the spray solution prepared above in (1) (at each spray volume of 300 L/10a) twice (28 days and 42 days after the planting of the seedlings) on the stems and leaves.
49 days after the start of the tests, all the plants in each lot were examined about the severity level of the disease to assess the frequency of the disease and the disease control value. Herein, the frequency of the disease and the disease control value were determined in the same manner as described above. Because soft rot is a disease with damages hardly controlled, herein, even a chemical at the level C determined by the tests of the effects can practically be used.

[3] = test system: bacteria causing the soft rot (Erwinia carotovora); experiment: Inhibition test of growth of bacteria causing soft rot, Reference Test Example 4; format: cell-based; settings: for formed colonies (growth state), grade: PSA medium, 27 degrees Celsius, 2 days
Text: An inhibition test of the growth of bacteria causing the soft rot was done, when a control agent was directly applied to the bacteria causing the soft rot. A given volume of each pesticide of kresoxim-methyl (STROBY DF [trade name] manufactured by BASF), thiophanate methyl (Topsin M WP [trade name], manufactured by Nippon Soda Co., Ltd), boscalid (Cantus DF [trade name] manufactured by BASF), procymidone (Sumilex WP [trade name] manufactured by Sumitomo Chemical Agro Co., Ltd.) and streptomycin (Mycin Wettable powder [trade name] manufactured by Hokko Chemical Industry Co., Ltd.) was added together with a suspension of the bacteria causing the soft rot (Erwinia carotovora) to a preliminarily dissolved PSA culture medium (55 degrees Celsius) for subsequent thorough agitation, which was then spread on a plate for culturing at 27 degrees Celsius for 2 days, to examine the growth state. Subsequently, the formed colonies were examined according to the following three grades. • +: at the same level as the level of non-treated lot. Plus or minus: apparently less than the colonies of the non-treated lot. • −: almost no colonies observed.

With CO/N=C(/C(=O)OC)c1ccccc1COc1ccccc1C [Kresoxim-methyl, methyl=(E)-methoxyimino[2-(o-tolyloxymethyl)phenyl]acetate] the Determination of effect [1] was “C (C: Effective at low level (21 to 40 disease control value))”, the Determination of effect [2] was “C (C: Effective at low level (21 to 40 disease control value))” and the “formed colonies (growth state), grade” value ([3]; 100 ppm active ingredient) was “+, +”. The “formed colonies (growth state), grade” value ([3]; 500 ppm active ingredient) was “+, +”, the “formed colonies (growth state), grade” value ([3]; 1000 ppm active ingredient) was “+, +” and the “inhibition of growth of Erwinia carotovora (in words)” value ([3]; active ingredient concentration of 1,000 ppm) was “never inhibited the growth”.
